Data from BigSolDB 2.1.

For `COP(=O)(NC(C)=O)SC` (stereo unspecified), the solubility (mole fraction) (in acetone, 299.45 K) was 0.068, the solubility (mole fraction) (in acetone, 302.6 K) was 0.0811 and the solubility (mole fraction) (in acetone, 305.2 K) was 0.0923. It also gave a solubility (mole fraction) (in acetone, 306.4 K) of 0.0986, a solubility (mole fraction) (in acetone, 309.8 K) of 0.119 and a solubility (mole fraction) (in acetone, 311.4 K) of 0.131. It also gave a solubility (mole fraction) (in acetone, 313.75 K) of 0.149, a solubility (mole fraction) (in acetone, 315.8 K) of 0.167 and a solubility (mole fraction) (in dichloromethane, 292.9 K) of 0.176. For the same molecule, the solubility (mole fraction) (in dichloromethane, 295.2 K) was 0.19, the solubility (mole fraction) (in dichloromethane, 297.3 K) was 0.203 and the solubility (mole fraction) (in dichloromethane, 298.45 K) was 0.21. The solubility (mole fraction) (in dichloromethane, 299.6 K) was 0.217, the solubility (mole fraction) (in dichloromethane, 301.05 K) was 0.226 and the solubility (mole fraction) (in dichloromethane, 302.3 K) was 0.233. For the same molecule, the solubility (mole fraction) (in dichloromethane, 303.25 K) was 0.241, the solubility (mole fraction) (in ethyl acetate, 307.9 K) was 0.035 and the solubility (mole fraction) (in ethyl acetate, 310.75 K) was 0.0408. The solubility (mole fraction) (in ethyl acetate, 314.2 K) was 0.049, the solubility (mole fraction) (in ethyl acetate, 318.4 K) was 0.0648 and the solubility (mole fraction) (in ethyl acetate, 321.55 K) was 0.0779. The solubility (mole fraction) (in ethyl acetate, 324.95 K) was 0.0965, the solubility (mole fraction) (in ethyl acetate, 327.6 K) was 0.118 and the solubility (mole fraction) (in isopropanol, 299.3 K) was 0.0606. The solubility (mole fraction) (in isopropanol, 303.95 K) was 0.0773, the solubility (mole fraction) (in isopropanol, 306.7 K) was 0.0925 and the solubility (mole fraction) (in isopropanol, 310.75 K) was 0.118. It also gave a solubility (mole fraction) (in isopropanol, 313.35 K) of 0.137, a solubility (mole fraction) (in isopropanol, 316.45 K) of 0.163 and a solubility (mole fraction) (in isopropanol, 319.45 K) of 0.193. The solubility (mole fraction) (in isopropanol, 322 K) was 0.224.
